Results: patent EP1171107B1, “USE OF A PHARMACEUTICAL COMPOSITION IN THE MANUFACTURE OF A MEDICAMENT FOR THE TREATMENT OF PATHOLOGICAL CONDITIONS OF THE EYE CAUSED BY BACTERIA, VIRUSES, FUNGI, YEASTS AND PROTOZOA” (Dr. GERHARD MANN chem.-pharm. Fabrik GmbH, priority 1999, dated 2000)

What was measured:
Assay type in all cases: cell-based
P.aeruginosa [1] = assay: Quantitative germ count (re-isolation, surface method) after inoculating the test preparation; conditions: Ausgangskeimzahl 2,7 x 10^5 KBE/ml
Method in brief: (§1)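 Test preparations (5 ml) inoculated with ca. 10^5 CFU/ml of each strain, one tube per time point. After 2, 6, 8, 24, 32, 48 and 72 h, cells pelleted, washed and resuspended in NaCl-peptone buffer, then spiral-plated on Caso agar and incubated at 33±2 °C up to 4 days. Detection limit 100 CFU/ml.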

S.aureus [2] = assay: as above; conditions: Ausgangskeimzahl 2,6 x 10^5 KBE/ml
Method in brief: as §1

E.coli [3] = assay: as above; conditions: Ausgangskeimzahl 2,7 x 10^5 KBE/ml
Sc. pneumoniae [4] = assay: as above; conditions: Ausgangskeimzahl 3,7 x 10^5 KBE/ml
Method in brief: as §1

H.influenzae [5] = assay: as above; conditions: Ausgangskeimzahl 2,8 x 10^5 KBE/ml
Method in brief: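 Surviving germs were counted by the surface method: an aliquot was spiral-plated on Kochblut-Agar and incubated at 33±2°C for max. 4 Tage, giving re-isolated counts in KBE/ml with a detection limit of 100 KBE/ml. Initial germ counts were also set by spiral-plater surface plating. The H. influenzae strain was pretested biochemically for identity and purity.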

P.aeruginosa [6] = assay: Qualitative examination: enrichment of the inoculated test preparation in broth
Method in brief: (§2)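 5 ml substance + ca. 10^5 CFU/ml; contact 2, 6, 8, 24, 32, 48, 72 h; spin 10 min 3000 rpm, resuspend in NaCl-peptone buffer ×2; 2 ml → 20 ml Caso broth (H. influenzae: Fildes), 33±2°C, ≤4 d; no growth = inoculum eliminated.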

H.influenzae [7] = assay: as above
Method in brief: as §2

S.epidermidis = assay: as above
Method in brief: as §2

S.aureus [8] = assay: as above
Method in brief: as §2

E.coli [9] = assay: as above
Method in brief: as §2

Sc. pneumoniae [10] = assay: as above
Method in brief: as §2

Substance: Benzalkoniumchlorid [Benzalkoniumchlorid 0,001 Gew.-%]
- Ergebnis der Reisolierung (in KBE/ml) (P.aeruginosa [1]; 2 h after inoculation): <100 KBE/ml
- Ergebnis der Reisolierung (in KBE/ml) (P.aeruginosa [1]; 4 h after inoculation): <100 KBE/ml
- Ergebnis der Reisolierung (in KBE/ml) (P.aeruginosa [1]; 6 h after inoculation): <100 KBE/ml
- Ergebnis der Reisolierung (in KBE/ml) (P.aeruginosa [1]; 8 h after inoculation): <100 KBE/ml
- Ergebnis der Reisolierung (in KBE/ml) (P.aeruginosa [1]; 24 h after inoculation): <100 KBE/ml
- Ergebnis der Reisolierung (in KBE/ml) (P.aeruginosa [1]; 32 h after inoculation): <100 KBE/ml
- Ergebnis der Reisolierung (in KBE/ml) (P.aeruginosa [1]; 48 h after inoculation): <100 KBE/ml
- Ergebnis der Reisolierung (in KBE/ml) (P.aeruginosa [1]; 72 h after inoculation): <100 KBE/ml
- Ergebnis der Reisolierung (in KBE/ml) (S.aureus [2]; 2 h after inoculation): <100 KBE/ml
- Ergebnis der Reisolierung (in KBE/ml) (S.aureus [2]; 4 h after inoculation): <100 KBE/ml
- Ergebnis der Reisolierung (in KBE/ml) (S.aureus [2]; 6 h after inoculation): <100 KBE/ml
- Ergebnis der Reisolierung (in KBE/ml) (S.aureus [2]; 8 h after inoculation): <100 KBE/ml
- Ergebnis der Reisolierung (in KBE/ml) (S.aureus [2]; 24 h after inoculation): <100 KBE/ml
- Ergebnis der Reisolierung (in KBE/ml) (S.aureus [2]; 32 h after inoculation): <100 KBE/ml
- Ergebnis der Reisolierung (in KBE/ml) (S.aureus [2]; 48 h after inoculation): <100 KBE/ml
- Ergebnis der Reisolierung (in KBE/ml) (S.aureus [2]; 72 h after inoculation): <100 KBE/ml
- Ergebnis der Reisolierung (in KBE/ml) (E.coli [3]; 2 h after inoculation): <100 KBE/ml
- Ergebnis der Reisolierung (in KBE/ml) (E.coli [3]; 4 h after inoculation): <100 KBE/ml
- Ergebnis der Reisolierung (in KBE/ml) (E.coli [3]; 6 h after inoculation): <100 KBE/ml
- Ergebnis der Reisolierung (in KBE/ml) (E.coli [3]; 8 h after inoculation): <100 KBE/ml
- Ergebnis der Reisolierung (in KBE/ml) (E.coli [3]; 24 h after inoculation): <100 KBE/ml
- Ergebnis der Reisolierung (in KBE/ml) (E.coli [3]; 32 h after inoculation): <100 KBE/ml
- Ergebnis der Reisolierung (in KBE/ml) (E.coli [3]; 48 h after inoculation): <100 KBE/ml
- Ergebnis der Reisolierung (in KBE/ml) (E.coli [3]; 72 h after inoculation): <100 KBE/ml
- Ergebnis der Reisolierung (in KBE/ml) (Sc. pneumoniae [4]; 2 h after inoculation): <100 KBE/ml
- Ergebnis der Reisolierung (in KBE/ml) (Sc. pneumoniae [4]; 4 h after inoculation): <100 KBE/ml
- Ergebnis der Reisolierung (in KBE/ml) (Sc. pneumoniae [4]; 6 h after inoculation): <100 KBE/ml
- Ergebnis der Reisolierung (in KBE/ml) (Sc. pneumoniae [4]; 8 h after inoculation): <100 KBE/ml
- Ergebnis der Reisolierung (in KBE/ml) (Sc. pneumoniae [4]; 24 h after inoculation): <100 KBE/ml
- Ergebnis der Reisolierung (in KBE/ml) (Sc. pneumoniae [4]; 32 h after inoculation): <100 KBE/ml
- Ergebnis der Reisolierung (in KBE/ml) (Sc. pneumoniae [4]; 48 h after inoculation): <100 KBE/ml
- Ergebnis der Reisolierung (in KBE/ml) (Sc. pneumoniae [4]; 72 h after inoculation): <100 KBE/ml
- Ergebnis der Reisolierung (in KBE/ml) (H.influenzae [5]; 2 h after inoculation): <100 KBE/ml
- Ergebnis der Reisolierung (in KBE/ml) (H.influenzae [5]; 4 h after inoculation): <100 KBE/ml
- Ergebnis der Reisolierung (in KBE/ml) (H.influenzae [5]; 6 h after inoculation): <100 KBE/ml
- Ergebnis der Reisolierung (in KBE/ml) (H.influenzae [5]; 8 h after inoculation): <100 KBE/ml
- Ergebnis der Reisolierung (in KBE/ml) (H.influenzae [5]; 24 h after inoculation): <100 KBE/ml
- Ergebnis der Reisolierung (in KBE/ml) (H.influenzae [5]; 32 h after inoculation): <100 KBE/ml
- Ergebnis der Reisolierung (in KBE/ml) (H.influenzae [5]; 48 h after inoculation): <100 KBE/ml
- Ergebnis der Reisolierung (in KBE/ml) (H.influenzae [5]; 72 h after inoculation): <100 KBE/ml
- Ergebnis der Reisolierung qualitiativ (+/-) nach Anreicherung (P.aeruginosa [6]; 2 h after inoculation): -
- Ergebnis der Reisolierung qualitiativ (+/-) nach Anreicherung (P.aeruginosa [6]; 4 h after inoculation): -
- Ergebnis der Reisolierung qualitiativ (+/-) nach Anreicherung (P.aeruginosa [6]; 6 h after inoculation): -
- Ergebnis der Reisolierung qualitiativ (+/-) nach Anreicherung (P.aeruginosa [6]; 8 h after inoculation): -
- Ergebnis der Reisolierung qualitiativ (+/-) nach Anreicherung (P.aeruginosa [6]; 24 h after inoculation): -
- Ergebnis der Reisolierung qualitiativ (+/-) nach Anreicherung (P.aeruginosa [6]; 32 h after inoculation): -
- Ergebnis der Reisolierung qualitiativ (+/-) nach Anreicherung (P.aeruginosa [6]; 48 h after inoculation): -
- Ergebnis der Reisolierung qualitiativ (+/-) nach Anreicherung (P.aeruginosa [6]; 72 h after inoculation): -
- Ergebnis der Reisolierung qualitiativ (+/-) nach Anreicherung (H.influenzae [7]; 2 h after inoculation): -
- Ergebnis der Reisolierung qualitiativ (+/-) nach Anreicherung (H.influenzae [7]; 4 h after inoculation): -
- Ergebnis der Reisolierung qualitiativ (+/-) nach Anreicherung (H.influenzae [7]; 6 h after inoculation): -
- Ergebnis der Reisolierung qualitiativ (+/-) nach Anreicherung (H.influenzae [7]; 8 h after inoculation): -
- Ergebnis der Reisolierung qualitiativ (+/-) nach Anreicherung (H.influenzae [7]; 24 h after inoculation): -
- Ergebnis der Reisolierung qualitiativ (+/-) nach Anreicherung (H.influenzae [7]; 32 h after inoculation): -
- Ergebnis der Reisolierung qualitiativ (+/-) nach Anreicherung (H.influenzae [7]; 48 h after inoculation): -
- Ergebnis der Reisolierung qualitiativ (+/-) nach Anreicherung (H.influenzae [7]; 72 h after inoculation): -
- Ergebnis der Reisolierung qualitiativ (+/-) nach Anreicherung (S.epidermidis; 2 h after inoculation): -
- Ergebnis der Reisolierung qualitiativ (+/-) nach Anreicherung (S.epidermidis; 4 h after inoculation): -
- Ergebnis der Reisolierung qualitiativ (+/-) nach Anreicherung (S.epidermidis; 6 h after inoculation): -
- Ergebnis der Reisolierung qualitiativ (+/-) nach Anreicherung (S.epidermidis; 8 h after inoculation): -
- Ergebnis der Reisolierung qualitiativ (+/-) nach Anreicherung (S.epidermidis; 24 h after inoculation): -
- Ergebnis der Reisolierung qualitiativ (+/-) nach Anreicherung (S.epidermidis; 32 h after inoculation): -
- Ergebnis der Reisolierung qualitiativ (+/-) nach Anreicherung (S.epidermidis; 48 h after inoculation): -
- Ergebnis der Reisolierung qualitiativ (+/-) nach Anreicherung (S.epidermidis; 72 h after inoculation): -
- Ergebnis der Reisolierung qualitiativ (+/-) nach Anreicherung (S.aureus [8]; 2 h after inoculation): -
- Ergebnis der Reisolierung qualitiativ (+/-) nach Anreicherung (S.aureus [8]; 4 h after inoculation): -
- Ergebnis der Reisolierung qualitiativ (+/-) nach Anreicherung (S.aureus [8]; 6 h after inoculation): -
- Ergebnis der Reisolierung qualitiativ (+/-) nach Anreicherung (S.aureus [8]; 8 h after inoculation): -
- Ergebnis der Reisolierung qualitiativ (+/-) nach Anreicherung (S.aureus [8]; 24 h after inoculation): -
- Ergebnis der Reisolierung qualitiativ (+/-) nach Anreicherung (S.aureus [8]; 32 h after inoculation): -
- Ergebnis der Reisolierung qualitiativ (+/-) nach Anreicherung (S.aureus [8]; 48 h after inoculation): -
- Ergebnis der Reisolierung qualitiativ (+/-) nach Anreicherung (S.aureus [8]; 72 h after inoculation): -
- Ergebnis der Reisolierung qualitiativ (+/-) nach Anreicherung (E.coli [9]; 2 h after inoculation): -
- Ergebnis der Reisolierung qualitiativ (+/-) nach Anreicherung (E.coli [9]; 4 h after inoculation): -
- Ergebnis der Reisolierung qualitiativ (+/-) nach Anreicherung (E.coli [9]; 6 h after inoculation): -
- Ergebnis der Reisolierung qualitiativ (+/-) nach Anreicherung (E.coli [9]; 8 h after inoculation): -
- Ergebnis der Reisolierung qualitiativ (+/-) nach Anreicherung (E.coli [9]; 24 h after inoculation): -
- Ergebnis der Reisolierung qualitiativ (+/-) nach Anreicherung (E.coli [9]; 32 h after inoculation): -
- Ergebnis der Reisolierung qualitiativ (+/-) nach Anreicherung (E.coli [9]; 48 h after inoculation): -
- Ergebnis der Reisolierung qualitiativ (+/-) nach Anreicherung (E.coli [9]; 72 h after inoculation): -
- Ergebnis der Reisolierung qualitiativ (+/-) nach Anreicherung (Sc. pneumoniae [10]; 2 h after inoculation): -
- Ergebnis der Reisolierung qualitiativ (+/-) nach Anreicherung (Sc. pneumoniae [10]; 4 h after inoculation): -
- Ergebnis der Reisolierung qualitiativ (+/-) nach Anreicherung (Sc. pneumoniae [10]; 6 h after inoculation): -
- Ergebnis der Reisolierung qualitiativ (+/-) nach Anreicherung (Sc. pneumoniae [10]; 8 h after inoculation): -
- Ergebnis der Reisolierung qualitiativ (+/-) nach Anreicherung (Sc. pneumoniae [10]; 24 h after inoculation): -
- Ergebnis der Reisolierung qualitiativ (+/-) nach Anreicherung (Sc. pneumoniae [10]; 32 h after inoculation): -
- Ergebnis der Reisolierung qualitiativ (+/-) nach Anreicherung (Sc. pneumoniae [10]; 48 h after inoculation): -
- Ergebnis der Reisolierung qualitiativ (+/-) nach Anreicherung (Sc. pneumoniae [10]; 72 h after inoculation): -
